Calls of active or inactive are those of the source. How the calls were made is not given here.

From PubChem BioAssay AID1648 (Sanford-Burnham Center for Chemical Genomics, 2009) come the findings set out here.

This test has as its target Serine/threonine-protein kinase mTOR (Homo sapiens) (UniProt P42345). Put plainly: mTOR FRB domain ligand binding – biophysical, NMR (AID 1648). To be noted: NMR binding to FRB domain, chemical shift.

Chain of Serine/threonine-protein kinase mTOR (Homo sapiens) (P42345 2015-2114): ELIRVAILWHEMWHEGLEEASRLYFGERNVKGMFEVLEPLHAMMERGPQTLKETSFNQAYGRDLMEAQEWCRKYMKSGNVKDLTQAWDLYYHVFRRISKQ

`CC(C)=CCCC1(C)C=Cc2c(O)c3c(c(CC=C(C)C)c2O1)OC12C(=CC4CC1C(C)(C)OC2(C/C=C(/C)C(=O)O)C4O)C3=O` (stereo unspecified): the Kd was > 4 mM (inactive).

With `COC(=O)Cn1c2ccccc2c2nc(C)sc21`, the Kd is > 4 mM (inactive).

`NC(=O)c1ccc(NC(=O)c2ccco2)cc1`: the Kd was > 4 mM (inactive).

As to `C[C@H]1C(=O)CCC2[C@]3(C)CC[C@@]4(C)C5CC(C)(C)CC[C@]5(C)CC[C@]4(C)C3CC[C@@]21C` (stereo partly specified), the Kd was > 4 mM (inactive).

On to `O=C(O)CN1CCNCC1`, for which the Kd was > 4 mM (inactive).

Turning to `NCc1c[nH]c2ccccc12`, the Kd was > 4 mM (inactive).

In the case of `NC1=NC(=O)/C(=C\c2cccc(C(=O)O)c2)S1`, the Kd was > 4 mM (inactive).

Regarding `NC(=O)CN1CC(=O)NC(=O)C1`, the Kd is > 4 mM (inactive).

Take `O=C1CS/C(=N/N=C/c2cccs2)N1`: the Kd is > 4 mM (inactive).

As to `CC(C)CCCC(C)[C@H]1CCC2C3CC=C4C[C@@H](O)CC[C@]4(C)C3CC[C@@]21C` (stereo partly specified), the Kd was > 4 mM (inactive).

Consider `C=C(C)[C@@H]1CC[C@]2(CO)CC[C@]3(C)[C@H](CCC4[C@@]5(C)CC[C@H](O)C(C)(C)C5CC[C@]43C)C12` (stereo partly specified), for which the Kd was > 4 mM (inactive).

Regarding `Cc1cc(=O)c2c(O)cc(O)c(C)c2o1`, the Kd was > 4 mM (inactive).

As for `C/C(=N\NC(N)=S)C(=O)O`, the Kd is > 4 mM (inactive).

On to `COCCOc1nc2ccccc2nc1C`, for which the Kd was > 4 mM (inactive).

Consider `OCC1CN(Cc2ccccc2)CCO1` (stereo unspecified), for which the Kd is > 4 mM (inactive).

As to `COc1ccc(-c2cc(=O)c3c(O)cc(O)c(-c4cc(-c5cc(=O)c6c(O)cc(O)cc6o5)ccc4OC)c3o2)cc1`, the Kd was > 4 mM (inactive).

For the molecule `O=C1C2C3C=CC(C3)C2C(=O)N1c1nccs1` (stereo unspecified), the Kd is > 4 mM (inactive).

Take `CN1C(=O)c2ccc(C(=O)NCc3ccccc3)cc2C1=O`: the Kd is > 4 mM (inactive).

With `Cn1c2c(c(=O)n(C)c1=O)CN(Cc1ccco1)CN2`, the Kd is > 4 mM (inactive).

As to `Nc1oncc1-c1ccccn1`, the Kd was > 4 mM (inactive).

As for `O=C(NCc1ccco1)c1ccc(=O)[nH]c1`, the Kd was > 4 mM (inactive).

Regarding `Cc1ccc2nc(NC(=O)CN3CCOCC3)sc2c1`, the Kd was > 4 mM (inactive).

Consider `O/N=C1/CCCc2nonc21`, for which the Kd was > 4 mM (inactive).

As to `Nc1nnc(SCc2ccc3c(c2)OCO3)s1`, the Kd is > 4 mM (inactive).

With `O=C(Nc1ccccn1)c1cc(-n2cnnc2)ccc1Cl`, the Kd was > 4 mM (inactive).

On to `Cc1cc(O)c(C=O)c(O)c1C(=O)O`, for which the Kd is > 4 mM (inactive).

In the case of `O=c1ccc2nc3ccccc3c(=O)n2[nH]1`, the Kd is > 4 mM (inactive).

Take `CCn1c(C)c(C(C)=O)c(N2CCN(C)CC2)nc1=S`: the Kd was > 4 mM (inactive).

As to `Cc1cc(=O)[nH]c(N2CCCCC2)n1`, the Kd was > 4 mM (inactive).

Take `CC1(C)C2CC(=O)[C@]3(C)C(CC[C@@]4(C)[C@H](c5ccoc5)OC(=O)C5OC543)[C@@]2(C)[C@@H](O)C[C@H]1O` (stereo partly specified): the Kd was > 4 mM (inactive).

In the case of `CC(C)n1nnc2cc(C(=O)O)ccc21`, the Kd is > 4 mM (inactive).

As to `O=C(CNC(=O)c1cccs1)NC1=NCCS1`, the Kd was > 4 mM (inactive).

In the case of `O=C(c1ccc(Cl)c(F)c1F)N1CCCC1`, the Kd was > 4 mM (inactive).

With `COC(=O)[C@@H]1OC(=O)[C@H]2O[C@@]23[C@@]1(C)CCC1[C@@]2(C)CCC(=O)C(C)(C)C2C[C@@H](OC(C)=O)[C@]13C` (stereo partly specified), the Kd is > 4 mM (inactive).

For `Cc1cc(C(=O)c2c(C)nn(C)c2Cl)n(C)n1`, the Kd was > 4 mM (inactive).

Take `OC1CSc2ncnn2C1` (stereo unspecified): the Kd was > 4 mM (inactive).

Regarding `COc1ccccc1NC(=O)c1cc[n+]([O-])cc1`, the Kd is > 4 mM (inactive).

On to `COC(=O)Nc1nc2c(C)cccc2s1`, for which the Kd was > 4 mM (inactive).

On to `CC(=O)O[C@@H]1CC2C(C)(CC[C@H](O)C2(C)C)C2CC[C@]3(C)C(=CC(=O)O[C@H]3c3ccoc3)C21C` (stereo partly specified), for which the Kd was > 4 mM (inactive).

On to `Nc1ccc2c(C(F)(F)F)cc(=O)oc2c1`, for which the Kd was > 4 mM (inactive).

`O=C1c2cccnc2C(=O)N1Cc1ccc2c(c1)OCO2`: the Kd is > 4 mM (inactive).

`COc1cc(/C=C/C(=O)O)cc(OC)c1OC`: the Kd is > 4 mM (inactive).

As to `CC1(C)CCC(C)(C)c2cc(C(=O)O)ccc21`, the Kd was > 4 mM (inactive).

Take `Cc1cc(C(=O)N2CCN(c3ccccn3)CC2)no1`: the Kd is > 4 mM (inactive).

For the molecule `COc1c2ccoc2c(OC)c2oc(=O)ccc12`, the Kd is > 4 mM (inactive).

For `O=C(O)c1cnc2sc3ccccc3n2c1=O`, the Kd was > 4 mM (inactive).

With `O=c1[nH]cc(N=Cc2ccc(F)cc2)c(=O)[nH]1`, the Kd was > 4 mM (inactive).

Take `C#CCCCCCCCCCCCc1ccco1`: the Kd was > 4 mM (inactive).

For `CC(C)CCCC(C)C1CCC2C3=CC[C@H]4C[C@@H](O)CC[C@]4(C)C3CC[C@@]21C` (stereo partly specified), the Kd was > 4 mM (inactive).

For the molecule `Nn1c(CN2CCCCC2)nc2ccccc2c1=O`, the Kd is > 4 mM (inactive).

Turning to `Nc1cc(=O)[nH]c(=S)n1-c1ccc(F)cc1`, the Kd is > 4 mM (inactive).

`O=C(Nc1ncccn1)c1cccc(F)c1`: the Kd was > 4 mM (inactive).

Turning to `Nc1nnc(SCc2ccccc2Cl)s1`, the Kd was > 4 mM (inactive).

Regarding `Nc1ccc2ncsc2c1`, the Kd is > 4 mM (inactive).

Turning to `O=c1c(O)c(-c2ccccc2)oc2cc(O)ccc12`, the Kd was > 4 mM (inactive).

In the case of `O=c1c2ccccc2oc2ccccc12`, the Kd is > 4 mM (inactive).

Take `CC(=O)NC(C)(C)C1CC=C(C)/C(=N\O)C1` (stereo unspecified): the Kd was > 4 mM (inactive).

For `O=C1CC(=O)N(c2ccccc2F)C(=S)N1`, the Kd is > 4 mM (inactive).

Regarding `Cc1nc(-c2ccccc2)ncc1CO`, the Kd is > 4 mM (inactive).

Turning to `Cc1cc(C)n2c(SCc3c(C)noc3C)nnc2n1`, the Kd was > 4 mM (inactive).

In the case of `CC(C)C(C)/C=C/C(C)C1CCC2C3=CC=C4CC(O)CCC4(C)C3CCC21C` (stereo unspecified), the Kd is > 4 mM (inactive).

On to `O=c1cc(-c2ccccc2)oc2cc(O)cc(O)c12`, for which the Kd was > 4 mM (inactive).

For `Fc1cc2nccnc2cc1N1CCSCC1`, the Kd was > 4 mM (inactive).

On to `Clc1ccc(-n2ccnc2)nn1`, for which the Kd was > 4 mM (inactive).

Regarding `Cc1ccc(F)cc1NC(=O)c1ccc2c(c1)OCO2`, the Kd was > 4 mM (inactive).

As to `O=S(=O)(c1cccc(Cl)c1)N1CCCC1`, the Kd is > 4 mM (inactive).

Consider `CC(C(N)=O)N1C(=O)c2ccccc2C1=O` (stereo unspecified), for which the Kd was > 4 mM (inactive).

As for `O=C1c2ccccc2C(=O)c2c1ccc(O)c2O`, the Kd is > 4 mM (inactive).

As for `Nc1c2c3c(sc2nc(=O)n1N)CCCC3`, the Kd was > 4 mM (inactive).

With `O=C(O)c1cc(F)cc2c1OCOC2`, the Kd is > 4 mM (inactive).

As to `Cc1noc(C)c1C(=O)Nc1ccc2c(c1)CCC2`, the Kd is > 4 mM (inactive).

For `CCOC(=O)c1c(C)cc(O)cc1O`, the Kd is > 4 mM (inactive).

With `CN1CCN(c2ccc(N)cc2)CC1`, the Kd is > 4 mM (inactive).

As for `O=C(O)c1cccnc1-c1nc2ccccc2s1`, the Kd is > 4 mM (inactive).

Turning to `Cc1cc(C)cc(C(=O)n2cnnc2N)c1`, the Kd is > 4 mM (inactive).

Consider `Cc1ccccc1C(=O)Nc1cccc(N)c1`, for which the Kd was > 4 mM (inactive).

Turning to `CC(=O)Nc1ccc(NC(=O)C2CC2)cc1`, the Kd is > 4 mM (inactive).

As to `CS(=O)(=O)c1nncn1-c1ccccc1`, the Kd is > 4 mM (inactive).

As for `C=C[C@H]1CN2CC[C@H]1C[C@H]2[C@H](O)c1ccnc2ccccc12`, the Kd was > 4 mM (inactive).

In the case of `Cc1n[nH]c(=S)n(/N=C/c2ccccc2)c1=O`, the Kd was > 4 mM (inactive).

In the case of `Cc1cc(N2C(=O)CCC2=O)n(-c2ccccc2)n1`, the Kd was > 4 mM (inactive).

`COc1ccc(-c2nc(N)n(C(C)=O)n2)cc1`: the Kd was > 4 mM (inactive).

Take `O=C(Nc1ccon1)c1csc2c1CCCC2`: the Kd is > 4 mM (inactive).

For the molecule `O=C(O)C1CSC2(CCCCC2)N1` (stereo unspecified), the Kd was > 4 mM (inactive).

`CC(=O)O[C@H]1C[C@@H](OC(C)=O)C(C)(C)C2CC(=O)[C@]3(C)C(CC[C@@]4(C)[C@H](C(=O)O)OC(=O)C5OC543)[C@]21C` (stereo partly specified): the Kd was > 4 mM (inactive).

On to `Cc1cc(=O)n2ncn(Cc3ccccc3)c2n1`, for which the Kd was > 4 mM (inactive).

As for `COC(=O)Nc1nnc(-c2ccncc2)s1`, the Kd was > 4 mM (inactive).

Take `O=C(O)c1ccc(CSc2ncn[nH]2)cc1`: the Kd was > 4 mM (inactive).

Take `Cc1ccc(C(O)c2nccn2C)o1` (stereo unspecified): the Kd is > 4 mM (inactive).

On to `NCC(O)c1ccc(O)cc1` (stereo unspecified), for which the Kd is > 4 mM (inactive).

For the molecule `NC(=S)NC1CCS(=O)(=O)C1` (stereo unspecified), the Kd is > 4 mM (inactive).

As for `C=Cc1c(C)c2cc3[nH]c(cc4nc(cc5nc(cc1[nH]2)C(C)=C5CCC(=O)O)C(CCC(=O)O)=C4C)c(C)c3C=C`, the Kd is > 4 mM (inactive).

As to `COc1cccc(NC(=O)c2ncn[nH]2)c1`, the Kd was > 4 mM (inactive).

For `O=C(O)c1ccc(-c2cccs2)s1`, the Kd was > 4 mM (inactive).

Regarding `Oc1ccccc1N1CCCC1`, the Kd is > 4 mM (inactive).

Consider `COc1cccc(-c2nc3ccc(O)cc3c(=O)o2)c1`, for which the Kd is > 4 mM (inactive).

For `O=c1[nH]cc(COCc2ccccc2)c(=O)[nH]1`, the Kd is > 4 mM (inactive).

Consider `NC(N)=NOCC[C@H](N)C(=O)O`, for which the Kd was > 4 mM (inactive).

Turning to `Cc1nnc(SCC(=O)Nc2ccccc2)[nH]c1=O`, the Kd is > 4 mM (inactive).

For the molecule `NC1=NC(=O)C(Cc2ccccc2)S1` (stereo unspecified), the Kd was > 4 mM (inactive).

As to `COc1ccccc1CNc1nc2nc(C)cc(=O)n2[nH]1`, the Kd was > 4 mM (inactive).
